This is an account of results in US20240352010A1, “SUBSTITUTED 1,2,4-THIADIAZOLYL NICOTINAMIDES, SALTS OR N-OXIDES THEREOF AND THEIR USE AS HERBICIDALLY ACTIVE SUBSTANCES” (BayerAktiengesellschaft, priority 2021, published 2024).

The experiment deals with Setaria viridis (SETVI). Put plainly: Herbicidal post-emergence action, SETVI. In kind it is in vivo. From the text:
Seeds of mono- and dicotyledonous weed plants were sown in plastic pots (double sowings with one species of mono- and one species of dicotyledonous weed plants per pot), in sandy loam, covered with soil and grown under controlled growth conditions. 2 to 3 weeks after sowing, the test plants were sprayed in the single-leaf stage. The compounds according to the invention, formulated in the form of wettable powders (WP) or as emulsifiable concentrates (EC), were sprayed onto the green plant parts as an aqueous suspension or as an emulsion, with the addition of 0.5% of an additive, at an application rate of 600 litres of water per hectare (converted). The test plants were placed in the greenhouse for ca. 3 weeks under optimum growth conditions, and then the effect of the preparations is assessed visually in comparison with untreated controls (herbicidal effect in percent (%): 100% effect=plants have died, 0% effect=as control plants). […]

Structures are written as SMILES.

Turning to `O=C(Nc1ncns1)c1c(C2CC2)ccnc1F` [Example I-005], the “herbicidal effect in percent, SETVI” value reads like this: (320 g/ha, assessed visually after ca. 3 weeks vs untreated controls (Table D8)) 90%; (1280 g/ha, assessed visually after ca. 3 weeks vs untreated controls (Table B7)) 100%.
